Several values for one entry are separate records, joined by “and”; a condition that tells them apart may be missing. Identical values can stand only once. Toxic doses and inconclusive results are not listed. No stated cut-off is given here; in the data, active means T/C of 150% or more; inactive means T/C below 125%.
Test system: L1210 leukemia ip in BDF1 mice, survival T/C
Experiment: NCI In Vivo Anticancer Drug Screen. Data for tumor model L1210 Leukemia (intraperitoneal) in B6D2F1 (BDF1) mice
Conditions: endpoint: mean survival time, higher = longer survival
Outline: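 Transplanted-tumor mice were given test agent; controls received vehicle only. Survival readings from the two groups were divided (treated over control).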

[1] = dose: 100.0 mg/kg/injection, schedule: Q04DX003 (ip), vehicle: Klucel (hydroxypropylcellulose) (HPC)
[2] = dose: 200.0 mg/kg/injection, schedule: Q04DX003 (ip), vehicle: Klucel (hydroxypropylcellulose) (HPC)
[3] = dose: 400.0 mg/kg/injection, schedule: Q04DX003 (ip), vehicle: Klucel (hydroxypropylcellulose) (HPC)
[4] = dose: 50.0 mg/kg/injection, schedule: Q01DX009 (ip), vehicle: Klucel (hydroxypropylcellulose) (HPC)
[5] = dose: 100.0 mg/kg/injection, schedule: Q04DX003 (ip), vehicle: other
[6] = dose: 200.0 mg/kg/injection, schedule: Q04DX003 (ip), vehicle: other
[7] = dose: 400.0 mg/kg/injection, schedule: Q04DX003 (ip), vehicle: other
[8] = dose: 100.0 mg/kg/injection, schedule: Q04DX002 (ip), vehicle: saline with Tween-80
[9] = dose: 200.0 mg/kg/injection, schedule: Q04DX002 (ip), vehicle: saline with Tween-80
[10] = dose: 400.0 mg/kg/injection, schedule: Q04DX002 (ip), vehicle: saline with Tween-80
[11] = dose: 100.0 mg/kg/injection, schedule: Q04DX002 (ip), vehicle: Klucel (hydroxypropylcellulose) (HPC)
[12] = dose: 200.0 mg/kg/injection, schedule: Q04DX002 (ip), vehicle: Klucel (hydroxypropylcellulose) (HPC)
[13] = dose: 400.0 mg/kg/injection, schedule: Q04DX002 (ip), vehicle: Klucel (hydroxypropylcellulose) (HPC)
[14] = dose: 100.0 mg/kg/injection, schedule: Q01DX009 (ip), vehicle: Klucel (hydroxypropylcellulose) (HPC)
[15] = dose: 200.0 mg/kg/injection, schedule: Q01DX009 (ip), vehicle: Klucel (hydroxypropylcellulose) (HPC)
[16] = dose: 400.0 mg/kg/injection, schedule: Q01DX009 (ip), vehicle: Klucel (hydroxypropylcellulose) (HPC)
[17] = dose: 100.0 mg/kg/injection, schedule: Q01DX001 (ip), vehicle: Klucel (hydroxypropylcellulose) (HPC)
[18] = dose: 200.0 mg/kg/injection, schedule: Q01DX001 (ip), vehicle: Klucel (hydroxypropylcellulose) (HPC)
[19] = dose: 400.0 mg/kg/injection, schedule: Q01DX001 (ip), vehicle: Klucel (hydroxypropylcellulose) (HPC)
[20] = dose: 100.0 mg/kg/injection, schedule: Q01DX001 (ip), vehicle: carboxymethylcellulose (CMC)
[21] = dose: 200.0 mg/kg/injection, schedule: Q01DX001 (ip), vehicle: carboxymethylcellulose (CMC)
[22] = dose: 400.0 mg/kg/injection, schedule: Q01DX001 (ip), vehicle: carboxymethylcellulose (CMC)
[23] = dose: 100.0 mg/kg/injection, schedule: Q01DX001 (ip), vehicle: saline
[24] = dose: 200.0 mg/kg/injection, schedule: Q01DX001 (ip), vehicle: saline
[25] = dose: 400.0 mg/kg/injection, schedule: Q01DX001 (ip), vehicle: saline

Measured: T/C

O=C(CNc1ccccc1)c1ccc(O)c(C(=O)O)c1 (tested in a mixture with another compound)
inactive: [1] 91 % of control | [2] 90 % of control | [3] 93 % of control

Cc1c([N+](=O)[O-])cc(C(C)(C)C)c(OC(=O)Nc2cccc(Cl)c2)c1[N+](=O)[O-]
inactive: dose: 12.5 mg/kg/injection, schedule: Q01DX009 (ip), vehicle: Klucel (hydroxypropylcellulose) (HPC) 100 % of control | dose: 25.0 mg/kg/injection, schedule: Q01DX009 (ip), vehicle: Klucel (hydroxypropylcellulose) (HPC) 94 % of control | [4] 101 % of control

CC(=O)Oc1c(C2CCCCC2)cc([N+](=O)[O-])cc1[N+](=O)[O-]
inactive: [1] 94 % of control | [2] 101 % of control

CC(Cc1ccc2c(c1)OCO2)C(C)Cc1ccc2c(c1)OCO2 (stereo not given)
inactive: dose: 100.0 mg/kg/injection, schedule: Q01DX009 (ip), vehicle: other 102 % of control | [5] 90 % of control | dose: 200.0 mg/kg/injection, schedule: Q01DX009 (ip), vehicle: other 109 % of control | [6] 102 % of control | dose: 400.0 mg/kg/injection, schedule: Q01DX009 (ip), vehicle: other 91 % of control | [7] 90 % of control

CN(C)Cc1c(O)ccc2ccccc12
inactive: [8] 100 % of control | [9] 90 % of control

CN(C)c1ccc(/C=N/NC(=O)c2ccccc2)cc1
inactive: [5] 94 % of control | [6] 97 % of control | [7] 98 % of control

Brc1cc(Cc2c(Br)csc2Br)c(Br)s1
inactive: [8] 101 % of control | [9] 101 % of control | [10] 101 % of control

CCOC(=O)C(CCC#N)(CCC(=O)OC)C(C)=O (stereo not given)
inactive: [8] 97 % of control | [9] 116 % of control | [10] 94 % of control

CCC1(C)C(=O)c2ccccc2N(C)C1=O (stereo not given)
inactive: [8] 104 % of control | [9] 104 % of control

COc1ccccc1-n1c(O)c(N=Nc2ccccc2C)c(=O)n(-c2ccc(C)cc2)c1=S
inactive: dose: 37.5 mg/kg/injection, schedule: Q01DX001 (ip), vehicle: Klucel (hydroxypropylcellulose) (HPC) 102 % of control | dose: 75.0 mg/kg/injection, schedule: Q01DX001 (ip), vehicle: Klucel (hydroxypropylcellulose) (HPC) 99 % of control | dose: 150.0 mg/kg/injection, schedule: Q01DX001 (ip), vehicle: Klucel (hydroxypropylcellulose) (HPC) 89 % of control

O=C(O)c1c2ccc(Cl)cc2nc2[nH]c(=O)[nH]c(=O)c12
inactive: [11] 108 % of control | [12] 120 % of control | [13] 113 % of control

O=C1/C(=C2\CCCc3ccc(Cl)cc32)CCc2ccc(Cl)cc21
inactive: dose: 100.0 mg/kg/injection, schedule: Q01DX009 (ip), vehicle: saline with Tween-80 100 % of control | dose: 200.0 mg/kg/injection, schedule: Q01DX009 (ip), vehicle: saline with Tween-80 97 % of control | dose: 400.0 mg/kg/injection, schedule: Q01DX009 (ip), vehicle: saline with Tween-80 96 % of control

Cc1cc(OCCO)ccc1Cl
inactive: [11] 108 % of control | [12] 108 % of control | [13] 108 % of control

COc1cc([N+](=O)[O-])c2ncccc2c1
inactive: [4] 102 % of control | [14] 105 % of control | [1] 94 % of control | [15] 104 % of control | [2] 91 % of control | [16] 115 % of control | [3] 104 % of control

CSc1nc2ccc(S(=O)(=O)O)cc2s1
inactive: [4] 104 % of control | [14] 96 % of control | [15] 97 % of control

COn1c(/C=N/NC(N)=S)ccc1CN1C(=O)c2ccccc2C1=O
inactive: [17] 100 % of control | [18] 97 % of control | [19] 93 % of control

NC(=S)N/N=C/c1cc(Br)ccc1O
inactive: [20] 100 % of control | [21] 100 % of control | [22] 105 % of control

Cc1ccc2cc(N(C)C)ccc2[n+]1C
inactive: dose: 3.13 mg/kg/injection, schedule: Q04DX003 (ip), vehicle: saline 101 % of control | dose: 6.25 mg/kg/injection, schedule: Q04DX003 (ip), vehicle: saline 106 % of control | dose: 12.5 mg/kg/injection, schedule: Q04DX003 (ip), vehicle: saline 96 % of control and 109 % of control

CCCCOP(=O)(OCCCC)N1CCCCC1
inactive: dose: 25.0 mg/kg/injection, schedule: Q04DX002 (ip), vehicle: saline with Tween-80 94 % of control | dose: 50.0 mg/kg/injection, schedule: Q04DX002 (ip), vehicle: saline with Tween-80 108 % of control | [8] 91 % of control

O=C(O)C1CCCN1O (stereo not given)
inactive: [23] 104 % of control | [24] 98 % of control | [25] 98 % of control

CN1CCN(C)P1N1CCCC1
inactive: [23] 89 % of control | [24] 95 % of control | [25] 93 % of control

CCSc1ccc2c(cc1=O)C(N)CCc1cc(OC)c(OC)c(OC)c1-2 (stereo not given)
inactive: dose: 12.5 mg/kg/injection, schedule: Q04DX002 (ip), vehicle: saline 107 % of control | dose: 25.0 mg/kg/injection, schedule: Q04DX002 (ip), vehicle: saline 95 % of control | dose: 50.0 mg/kg/injection, schedule: Q04DX002 (ip), vehicle: saline 98 % of control

CC1CCC(C(C)C)C(NCc2ccccc2O)C1 (stereo not given)
inactive: [1] 89 % of control

CC(=O)C1CC(CC(=O)O)C1(C)C (stereo not given)
inactive: [4] 95 % of control | [14] 100 % of control | [1] 101 % of control | [15] 97 % of control | [2] 101 % of control | [3] 97 % of control

CCC1=CCC=CC1
inactive: dose: 50.0 mg/kg/injection, schedule: Q01DX001 (ip), vehicle: carboxymethylcellulose (CMC) 101 % of control | [20] 104 % of control | [21] 104 % of control | [22] 109 % of control

CC(C)(C)C1COP(=S)(C(C)(C)C)OC1 (stereo not given)
inactive: [1] 102 % of control | [2] 93 % of control

C/C(=C\C(C)(C)c1ccccc1)c1ccccc1
inactive: dose: 50.0 mg/kg/injection, schedule: Q04DX003 (ip), vehicle: other 92 % of control | [5] 92 % of control | [6] 100 % of control

O=[N+]([O-])c1cc(Br)cnc1Br
inactive: [17] 100 % of control | [14] 101 % of control | [18] 105 % of control | [15] 96 % of control | [19] 105 % of control | [16] 103 % of control

O=S(=O)(O)CC(NCc1ccccc1)c1ccccc1 (stereo not given)
inactive: [5] 100 % of control | [6] 97 % of control | [7] 94 % of control

— PubChem BioAssay AID248 (DTP/NCI, 2004)
